This note sets out measurements from ChEMBL document CHEMBL1144803, “Nardosinanols A-I and lemnafricanol, sesquiterpenes from several soft corals, Lemnalia sp., Paralemnalia clavata, Lemnalia africana, and Rhytisma fulvum fulvum” (J Nat Prod, 2008).

A word on the LC50: it is the concentration that kills 50% of the test population. Lower therefore signals greater toxicity.

The series in a line: Toxicity in brine shrimp. The series is classed as organism-based. As to conditions: artemia, in vivo.

With `CC(=O)O[C@H]1C[C@H](O)[C@@]23C(=O)[C@@H](C)[C@@H]1[C@]2(C)[C@@H](C)CC[C@@H]3O` [LEMNAFRICANOL], the LC50 was determined as 320 nM.
On to `C[C@@H](C=O)[C@H]1C(=O)CCC2=C[C@@H](O)C[C@H](C)[C@]21C` [NARDOSINANOL C], for which the LC50 came to 4000 nM.
With `CC(=O)[C@H]1C[C@H](O)C2=CCC[C@H](C)[C@@]2(C)[C@H]1C(C)=O` [NARDOSINANOL G] the figure was 350 nM.
